According to patent US20240293379A1, “THERAPEUTIC AGENT FOR CANCER OF PATIENT WITH DECREASE IN RB1 FUNCTION USING MYT1 INHIBITOR AND CHEMOTHERAPEUTIC AGENT IN COMBINATION, AND TREATMENT METHOD THEREOF” (Chugai Seiyaku Kabushiki Kaisha, priority 2022, published 2024):
Where two headings read alike, the source gives them in different places.

Experiments:
Test in all cases: Pemetrexed cytotoxicity test upon suppression of expression of MYT1
Format in all cases: cell-based
NCI-H2122 = conditions: Homo sapiens, NCI-H2122 (RB1 wild-type), 7 days
Protocol: (§1) Thereafter, the plates were shaken to transfect each siRNA at a final concentration of 10 nM.
(§2) The −Log 2 value of fold change of IC50 and the maximum value of Bliss score, which are indexes of the combination effect, were calculated by comparing with the actually obtained cell survival curve, and described in Table 6 (see Non Patent Literature 9).

NCI-H596 = conditions: Homo sapiens, NCI-H596 (RB1 mutant), 7 days
Protocol: as §1, §2

ABC-1 = conditions: Homo sapiens, ABC-1 (RB1 wild-type), 7 days
Protocol: as §1, §2

NCI-H1155 = conditions: Homo sapiens, NCI-H1155 (RB1 mutant), 7 days
Protocol: as §1, §2

NCI-H1666 = conditions: Homo sapiens, NCI-H1666 (RB1 wild-type), 7 days
Protocol: as §1, §2

A549 = conditions: Homo sapiens, A549 (RB1 wild-type), 7 days
Protocol: as §1, §2

PC-9 = conditions: Homo sapiens, PC-9 (RB1 wild-type), 7 days
Protocol: as §1, §2

NCI-H292 = conditions: Homo sapiens, NCI-H292 (RB1 wild-type), 7 days
Protocol: as §1, §2

NCI-H358 = conditions: Homo sapiens, NCI-H358 (RB1 wild-type), 7 days
Protocol: as §1, §2

NCI-H441 = conditions: Homo sapiens, NCI-H441 (RB1 wild-type), 7 days
Protocol: as §1, §2

NCI-H322 = NCI-H322 (RB1 wild-type), 7 days
Protocol: as §1, §2

NCI-H661 = conditions: Homo sapiens, NCI-H661 (RB1 wild-type), 7 days
Protocol: as §1, §2

NCI-H460 = conditions: Homo sapiens, NCI-H460 (RB1 wild-type), 7 days
Protocol: as §1, §2

ChaGo-K-1 = conditions: Homo sapiens, ChaGo-K-1 (RB1 mutant), 7 days
Protocol: as §1, §2

NCI-H2110 = NCI-H2110 (RB1 mutant), 7 days
Protocol: as §1, §2

EKVX = conditions: Homo sapiens, EKVX (RB1 wild-type), 7 days
Protocol: as §1, §2

LU65 = conditions: Homo sapiens, LU65 (RB1 mutant), 7 days
Protocol: as §1, §2

NCI-H1993 = conditions: Homo sapiens, NCI-H1993 (RB1 wild-type), 7 days
Protocol: as §1, §2

[1] = read-out: IC50 of pemetrexed, MYT1 #16, MYT1 siRNA #16 10 nM
[2] = read-out: IC50 of pemetrexed, MYT1 #18, MYT1 siRNA #18 10 nM
[3] = read-out: IC50 of pemetrexed, NT, negative control siRNA 10 nM

For `Nc1nc2[nH]cc(CCc3ccc(C(=O)N[C@@H](CCC(=O)O)C(=O)O)cc3)c2c(=O)[nH]1` [pemetrexed], the IC50 (NCI-H2122; [1]) was 13.5 nM, the IC50 (NCI-H2122; [2]) was 47.2 nM and the IC50 (NCI-H2122; [3]) was 159 nM. For the same compound, the IC50 (NCI-H596; [1]) was 7.01 nM, the IC50 (NCI-H596; [2]) was 21 nM and the IC50 (NCI-H596; [3]) was 385 nM. For the same compound, the IC50 (ABC-1; [1]) was 363 nM, the IC50 (ABC-1; [2]) was 313 nM and the IC50 (ABC-1; [3]) was 973 nM. For the same compound, the IC50 (NCI-H1155; [1]) was 673 nM, the IC50 (NCI-H1155; [2]) was 1650 nM and the IC50 (NCI-H1155; [3]) was 9840 nM. It also gave an IC50 (NCI-H1666; [1]) of 473 nM, an IC50 (NCI-H1666; [2]) of 291 nM and an IC50 (NCI-H1666; [3]) of 619 nM. For the same compound, the IC50 (A549; [1]) was 1530 nM, the IC50 (A549; [2]) was 1950 nM and the IC50 (A549; [3]) was 2850 nM. The IC50 (PC-9; [1]) was 32.9 nM, the IC50 (PC-9; [2]) was 77.7 nM and the IC50 (PC-9; [3]) was 145 nM. For the same compound, the IC50 (NCI-H292; [1]) was 71.1 nM, the IC50 (NCI-H292; [2]) was 187 nM and the IC50 (NCI-H292; [3]) was 391 nM. It also gave an IC50 (NCI-H358; [1]) of 531 nM, an IC50 (NCI-H358; [2]) of 333 nM and an IC50 (NCI-H358; [3]) of 986 nM. The IC50 (NCI-H441; [1]) was 95.6 nM, the IC50 (NCI-H441; [2]) was 865 nM and the IC50 (NCI-H441; [3]) was 884 nM. For the same compound, the IC50 (NCI-H322; [1]) was 1030 nM, the IC50 (NCI-H322; [2]) was 805 nM and the IC50 (NCI-H322; [3]) was 1600 nM. It also gave an IC50 (NCI-H661; [1]) of 45.7 nM, an IC50 (NCI-H661; [2]) of 129 nM and an IC50 (NCI-H661; [3]) of 315 nM. It also gave an IC50 (NCI-H460; [1]) of 465 nM, an IC50 (NCI-H460; [2]) of 563 nM and an IC50 (NCI-H460; [3]) of 667 nM. It also gave an IC50 (ChaGo-K-1; [1]) of 133 nM, an IC50 (ChaGo-K-1; [2]) of 192 nM and an IC50 (ChaGo-K-1; [3]) of 914 nM. The IC50 (NCI-H2110; [1]) was 10.5 nM, the IC50 (NCI-H2110; [2]) was 41.4 nM and the IC50 (NCI-H2110; [3]) was 227 nM. It also gave an IC50 (EKVX; [1]) of 166 nM, an IC50 (EKVX; [2]) of 263 nM and an IC50 (EKVX; [3]) of 404 nM. It also gave an IC50 (LU65; Lu-65, read-out: IC50 of pemetrexed, MYT1 #16, MYT1 siRNA #16 10 nM) of 134 nM, an IC50 (LU65; Lu-65, read-out: IC50 of pemetrexed, MYT1 #18, MYT1 siRNA #18 10 nM) of 140 nM and an IC50 (LU65; Lu-65, read-out: IC50 of pemetrexed, NT, negative control siRNA 10 nM) of 1070 nM. It also gave an IC50 (NCI-H1993; [1]) of 24.6 nM, an IC50 (NCI-H1993; [2]) of 106 nM and an IC50 (NCI-H1993; [3]) of 181 nM.
